Experimental data as given in US10222368B2 (priority 2012, dated 2019).

Key:
[1] = biological target: T1, α7nAChR-FLNA association (Rattus norvegicus, UniProt A0A8I5ZV49); assay: Rat frontal cortical synaptosomes treated with Aβ42, anti-FLNA immunoprecipitation / Western blot; type: cell-based; conditions: 0.1 or 1 nM compound, simultaneously with or 10 min prior to Aβ42
T1 construct: from tissue; host or cells: rat frontal cortical synaptosomes
Text: The α7nAChR-FLNA complexes in the solubilized synaptosomes were immunoprecipitated with immobilized anti-FLNA and the α7nAChR and FLNA levels in the anti-FLNA immunoprecipitates determined by Western blotting (FIG. 14A) and quantified by densitometry for illustrative compounds (FIG. 14B). n=3. […] The letter designation “M” that accompanies many of the “C-series” compounds is omitted from FIG. 14, the remaining figures and most discussions of the figures and compounds hereinafter for ease in expression. Structural formulas of the compounds used in this and the other figures are provided hereinafter.
The complexes in the solubilized synaptosomes, and α7nAChR, TLR4 and FLNA levels in the anti-FLNA immunoprecipitates were determined by Western blotting (FIG. 15A) in which numerals outside of and to the left of the blots are as discussed before. Amounts present in the blots were quantified by densitometry (FIG. 15B). […] Structural formulas of the compounds used in this and the other figures are provided hereinafter.

[2] = biological target: FLNA pentapeptide VAKGL (SEQ ID NO: 1) (Homo sapiens, UniProt P21333); assay: FITC-NLX-based FLNA screening assay; type: binding; conditions: for inhibition at 0.0001 µM: 0.1 nM compound; for inhibition at 0.0001 µM / inhibition at 0.001 µM / inhibition at 0.01 µM / inhibition at 0.1 µM / inhibition at 1 µM: 100 nM frozen-stored FITC-NLX, average of two runs, read-out: Percent inhibition of FITC-NLX binding, preliminary study; for inhibition at 0.001 µM: 1 nM compound; for inhibition at 0.01 µM: 10 nM compound; for inhibition at 0.1 µM: 100 nM compound; for inhibition at 1 µM: 1 μM compound; for Percent Binding Inhibition (FITC-NLX binding to Bn-VAKGL): 10 nM FITC-NLX
[3] = biological target: T2, mu opiate receptor (MOR) (Rattus norvegicus, UniProt P33535); assay: MOR agonist activity using [35S]GTPγS binding assay in striatal membranes; type: biochemical; conditions: for MOR agonist activity ([35S]GTPγS binding to Gαo), preliminary study: average of two runs; for MOR agonist activity, [35S]GTPγS binding, FLNA-binding compound as agonist at 0.1 μM: 0.1 μM compound; for MOR agonist activity, [35S]GTPγS binding, FLNA-binding compound as agonist at 0.1 μM / MOR agonist activity, [35S]GTPγS binding, 1 μM + BFNA / MOR agonist activity, [35S]GTPγS binding, FLNA-binding compound as agonist at 1 μM: striatal membranes; for MOR agonist activity, [35S]GTPγS binding, FLNA-binding compound as agonist at 0.1 μM / MOR agonist activity, [35S]GTPγS binding, FLNA-binding compound as agonist at 1 μM: Series C-2; for MOR agonist activity, [35S]GTPγS binding, 1 μM + BFNA: 1 μM compound + 1 μM β-FNA (MOR antagonist); for MOR agonist activity, [35S]GTPγS binding, FLNA-binding compound as agonist at 1 μM: 1 μM compound
T2 construct: from tissue; host or cells: striatal tissue (membrane preparation)
Procedure: To assess the mu opiate receptor (MOR) agonist activity of positive compounds from the FLNA screening, compounds were tested in a [^35S]GTPγS binding assay using striatal membranes. […] This assay measures a functional consequence of receptor occupancy at one of the earliest receptor-mediated events. The assay permits for traditional pharmacological parameters of potency, efficacy and antagonist affinity, with the advantage that agonist measures are not subjected to amplification or other modulation that may occur when analyzing parameters further downstream of the receptor.
Thus, striatal tissue was homogenized in 10 volumes of ice cold 25 mM HEPES buffer, pH 7.4, which contained 1 mM EGTA, 100 mM sucrose, 50 μg/ml leupeptin, 0.04 mM PMSF, 2 μg/ml soybean trypsin inhibitor and 0.2% 2-mercaptoethanol. The homogenates were centrifuged at 800×g for 5 minutes and the supernatants were centrifuged at 49,000×g for 20 minutes.
The resultant striatal membrane preparation (200 μg) was admixed and maintained (incubated) at 30° C. for 5 minutes in reaction buffer as above that additionally contained 1 mM MgCl2 and 0.5 nM [^35S]GTPγS (0.1 μCi/assay, PerkinElmer Life and Analytical Sciences) in a total volume of 250 μl and continued for 5 minutes in the absence or presence of 0.1-10 μM of an assayed compound of interest. The reaction was terminated by dilution with 750 μl of ice-cold reaction buffer that contained 20 mM MgCl2 and 1 mM EGTA and immediate centrifugation at 16,000×g for 5 minutes.
Normal rabbit serum (1 μl) was added to 1 ml of lysate and incubated at 25° C. for 30 minutes. Nonspecific immune complexes were removed by incubation with 25 μl of protein A/G-conjugated agarose beads at 25° C. for 30 minutes followed by centrifugation at 5,000×g at 4° C. for 5 minutes. The supernatant was divided and separately incubated at 25° C. for 30 minutes with antibodies raised against Gαo proteins (1:1,000 dilutions).
The immunocomplexes so formed were collected by incubation at 25° C. for 30 minutes with 40 μl of agarose-conjugated protein A/G beads and centrifugation at 5,000×g at 4° C. for 5 minutes. The pellet was washed and suspended in buffer containing 50 mM Tris-HCl, pH 8.0, and 1% NP-40. The radioactivity in the suspension was determined by liquid scintillation spectrometry.

T2 sequence (P33535 whole entry): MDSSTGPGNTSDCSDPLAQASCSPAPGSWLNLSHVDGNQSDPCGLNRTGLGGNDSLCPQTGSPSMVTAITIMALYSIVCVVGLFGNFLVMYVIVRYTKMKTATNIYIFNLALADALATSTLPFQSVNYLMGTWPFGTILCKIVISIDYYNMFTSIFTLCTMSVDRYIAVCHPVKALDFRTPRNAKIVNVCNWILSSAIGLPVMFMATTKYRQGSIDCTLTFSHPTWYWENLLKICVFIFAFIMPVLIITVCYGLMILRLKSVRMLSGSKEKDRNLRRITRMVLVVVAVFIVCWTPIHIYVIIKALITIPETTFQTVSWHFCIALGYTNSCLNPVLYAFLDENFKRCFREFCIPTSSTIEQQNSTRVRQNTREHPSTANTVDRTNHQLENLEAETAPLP
T1 sequence (A0A8I5ZV49 1-2647): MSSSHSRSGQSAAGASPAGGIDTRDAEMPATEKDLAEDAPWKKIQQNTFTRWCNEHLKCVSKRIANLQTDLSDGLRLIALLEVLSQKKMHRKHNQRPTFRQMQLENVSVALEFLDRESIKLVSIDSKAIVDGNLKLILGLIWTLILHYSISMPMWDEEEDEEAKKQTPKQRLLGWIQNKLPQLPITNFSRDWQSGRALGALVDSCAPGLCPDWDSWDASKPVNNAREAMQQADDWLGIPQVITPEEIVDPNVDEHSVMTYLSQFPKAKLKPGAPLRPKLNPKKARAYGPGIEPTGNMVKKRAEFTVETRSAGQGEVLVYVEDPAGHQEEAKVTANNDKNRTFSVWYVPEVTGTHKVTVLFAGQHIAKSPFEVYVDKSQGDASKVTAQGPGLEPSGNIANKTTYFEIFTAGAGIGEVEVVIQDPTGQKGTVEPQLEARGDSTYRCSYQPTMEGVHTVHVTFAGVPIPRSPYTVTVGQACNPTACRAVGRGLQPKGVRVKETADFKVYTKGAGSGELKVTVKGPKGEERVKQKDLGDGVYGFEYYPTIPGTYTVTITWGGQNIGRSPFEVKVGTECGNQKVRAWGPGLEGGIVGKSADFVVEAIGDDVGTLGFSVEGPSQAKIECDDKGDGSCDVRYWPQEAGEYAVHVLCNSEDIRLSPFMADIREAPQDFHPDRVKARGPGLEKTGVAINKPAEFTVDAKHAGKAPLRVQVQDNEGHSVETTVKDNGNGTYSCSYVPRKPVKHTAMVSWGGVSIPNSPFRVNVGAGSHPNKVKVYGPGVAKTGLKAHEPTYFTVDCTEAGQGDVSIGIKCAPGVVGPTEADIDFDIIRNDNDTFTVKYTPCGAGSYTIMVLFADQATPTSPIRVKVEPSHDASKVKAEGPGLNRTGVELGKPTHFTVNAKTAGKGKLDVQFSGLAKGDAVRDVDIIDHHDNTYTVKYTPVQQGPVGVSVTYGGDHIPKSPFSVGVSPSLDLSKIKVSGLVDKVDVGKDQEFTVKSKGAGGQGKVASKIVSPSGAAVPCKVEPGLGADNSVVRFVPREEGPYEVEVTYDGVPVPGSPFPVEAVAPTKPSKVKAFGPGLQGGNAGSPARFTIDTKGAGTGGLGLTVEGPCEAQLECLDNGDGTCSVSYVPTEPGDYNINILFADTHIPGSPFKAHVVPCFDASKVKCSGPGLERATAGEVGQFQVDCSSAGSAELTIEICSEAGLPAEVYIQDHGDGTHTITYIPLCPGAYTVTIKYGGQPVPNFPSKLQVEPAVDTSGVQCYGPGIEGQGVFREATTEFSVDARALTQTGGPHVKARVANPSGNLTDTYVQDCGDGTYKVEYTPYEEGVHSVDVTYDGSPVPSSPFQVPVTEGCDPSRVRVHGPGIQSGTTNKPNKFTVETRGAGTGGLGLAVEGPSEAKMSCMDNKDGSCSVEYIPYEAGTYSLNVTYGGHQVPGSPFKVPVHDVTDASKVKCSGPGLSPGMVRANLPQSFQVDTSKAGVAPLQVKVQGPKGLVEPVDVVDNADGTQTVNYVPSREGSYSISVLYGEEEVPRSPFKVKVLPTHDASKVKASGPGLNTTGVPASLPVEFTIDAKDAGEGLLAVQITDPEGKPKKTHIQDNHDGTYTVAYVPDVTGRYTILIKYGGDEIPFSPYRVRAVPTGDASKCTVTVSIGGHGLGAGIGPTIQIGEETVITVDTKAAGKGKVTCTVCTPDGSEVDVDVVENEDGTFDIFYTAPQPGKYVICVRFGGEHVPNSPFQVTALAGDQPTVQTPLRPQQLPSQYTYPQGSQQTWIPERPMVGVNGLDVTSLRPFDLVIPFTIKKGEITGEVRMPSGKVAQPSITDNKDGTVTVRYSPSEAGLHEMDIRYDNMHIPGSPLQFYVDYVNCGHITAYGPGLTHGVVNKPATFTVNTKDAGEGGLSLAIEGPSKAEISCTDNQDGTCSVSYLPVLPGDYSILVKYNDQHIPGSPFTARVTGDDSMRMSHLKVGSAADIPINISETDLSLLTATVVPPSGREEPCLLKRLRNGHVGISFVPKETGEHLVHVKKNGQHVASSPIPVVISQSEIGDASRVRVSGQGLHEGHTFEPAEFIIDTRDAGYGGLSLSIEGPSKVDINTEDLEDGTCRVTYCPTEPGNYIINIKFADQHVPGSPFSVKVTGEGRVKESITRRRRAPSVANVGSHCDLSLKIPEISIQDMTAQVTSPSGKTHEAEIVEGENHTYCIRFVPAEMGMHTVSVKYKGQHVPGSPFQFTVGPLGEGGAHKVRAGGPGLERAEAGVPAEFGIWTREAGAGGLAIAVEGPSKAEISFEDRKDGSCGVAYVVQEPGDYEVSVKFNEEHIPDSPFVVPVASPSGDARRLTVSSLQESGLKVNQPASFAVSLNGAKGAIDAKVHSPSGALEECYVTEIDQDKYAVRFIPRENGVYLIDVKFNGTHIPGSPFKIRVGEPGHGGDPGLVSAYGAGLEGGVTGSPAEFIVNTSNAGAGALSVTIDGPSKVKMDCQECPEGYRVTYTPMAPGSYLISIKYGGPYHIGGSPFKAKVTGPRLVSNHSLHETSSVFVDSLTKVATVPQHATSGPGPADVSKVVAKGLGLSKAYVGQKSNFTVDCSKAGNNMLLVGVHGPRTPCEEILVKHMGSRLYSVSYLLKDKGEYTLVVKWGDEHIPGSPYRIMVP

Molecule: CC1CCC(C(C)C)C(OCC(O)CN2CCCc3ccccc32)C1 (centres unmarked) [Compound A0068]
- Effect on Aβ42-induced α7nAChR-FLNA association (in words) [1]: reduce α7nAChR-FLNA association

Molecule: CC1CCC(C(C)C)C(OCC(O)CN2CCc3ccccc3C2)C1 (centres unmarked) [Compound A0040]
- Effect on Aβ42-induced α7nAChR-FLNA association (in words) [1]: reduce α7nAChR-FLNA association

Molecule: Nalorphine [reference compound]
- Binding to the FLNA pentapeptide of SEQ ID NO: 1 (in words) [2]: bind well

Molecule: O=S(=O)(c1ccc(OC(F)(F)F)cc1)N1CCOC12CCN(CC1CC1)CC2 [Compound 4]
- inhibition at 0.0001 µM [2]: 18.8%
- inhibition at 0.001 µM [2]: 21.3%
- inhibition at 0.01 µM [2]: 17.9%
- inhibition at 0.1 µM [2]: 28.8%
- inhibition at 1 µM [2]: 42.9%
- MOR agonist activity ([35S]GTPγS binding to Gαo), preliminary study ([3]; 0.1 μM compound as agonist): 133.9%
- MOR agonist activity ([35S]GTPγS binding to Gαo), preliminary study ([3]; 1 μM + βNFA): 49.5%
- MOR agonist activity ([35S]GTPγS binding to Gαo), preliminary study ([3]; 1 μM compound as agonist): 165.2%

Molecule: CO[C@]12CC[C@@]3(C[C@@H]1C(C)(O)C(C)(C)C)[C@H]1Cc4ccc(O)c5c4[C@@]3(CCN1CC1CC1)[C@H]2O5 (some centres unmarked) [Buprenorphine, reference compound]
- Binding to the FLNA pentapeptide of SEQ ID NO: 1 (in words) [2]: bind well

Molecule: CN1CC[C@]23c4c5ccc(O)c4O[C@H]2[C@@H](O)C=C[C@H]3[C@H]1C5 [morphine, reference compound]
- Binding to the FLNA pentapeptide of SEQ ID NO: 1 (in words) [2]: do not bind

Molecule: COc1ccc(OCC(O)CN2CCc3ccccc3C2)cc1 (centres unmarked) [Compound A0053]
- Effect on Aβ42-induced α7nAChR-FLNA association (in words) [1]: reduce α7nAChR-FLNA association

Molecule: C=CCN1CC[C@]23c4c5ccc(O)c4O[C@H]2C(=O)CC[C@]3(O)[C@H]1C5 [(+) NLX, (+)naloxone, reference compound]
- Effect on Aβ42-induced α7nAChR-FLNA association (in words) [1]: reduce α7nAChR-FLNA association

Molecule: CC1CCC(C(C)C)C(OCC(CN2CC(C)OC(C)C2)NCc2ccccc2)C1 (centres unmarked) [Compound A0033]
- Effect on Aβ42-induced α7nAChR-FLNA association (in words) [1]: reduce α7nAChR-FLNA association

Molecule: CN1CCC2(CC1)NCC(=O)N2Cc1ccccc1 [Compound C0105M]
- Effect on Aβ42-induced α7nAChR-FLNA association (in words) [1]: reduce α7nAChR-FLNA association
- MOR agonist activity, [35S]GTPγS binding, FLNA-binding compound as agonist at 0.1 μM [3]: 198.1%
- MOR agonist activity, [35S]GTPγS binding, 1 μM + BFNA [3]: 73.1%
- MOR agonist activity, [35S]GTPγS binding, FLNA-binding compound as agonist at 1 μM [3]: 220.3%

Molecule: O=C1CNC2(CCN(S(=O)(=O)c3ccc(O)cc3)CC2)N1Cc1ccccc1 [Compound C0148M]
- Percent Binding Inhibition (FITC-NLX binding to Bn-VAKGL) ([2]; 0.01 μM FLNA-binding compound): 46.2%
- Percent Binding Inhibition (FITC-NLX binding to Bn-VAKGL) ([2]; 0.1 μM FLNA-binding compound): 52.0%
- Percent Binding Inhibition (FITC-NLX binding to Bn-VAKGL) ([2]; 1 μM FLNA-binding compound): 57.0%

Molecule: C=CCN1CCC2(CC1)OCCN2S(=O)(=O)c1ccc(C)cc1 [Compound 10]
- inhibition at 0.0001 µM [2]: 27.5%
- inhibition at 0.001 µM [2]: 27.3%
- inhibition at 0.01 µM [2]: 26.6%
- inhibition at 0.1 µM [2]: 27.3%
- inhibition at 1 µM [2]: 34.5%
- MOR agonist activity ([35S]GTPγS binding to Gαo), preliminary study ([3]; 0.1 μM compound as agonist): 163.1%
- MOR agonist activity ([35S]GTPγS binding to Gαo), preliminary study ([3]; 1 μM + βNFA): 60.4%
- MOR agonist activity ([35S]GTPγS binding to Gαo), preliminary study ([3]; 1 μM compound as agonist): 191.8%

Molecule: O=C1CNC2(CCNCC2)N1Cc1ccccc1 [Compound C0114M]
- Effect on Aβ42-induced α7nAChR-FLNA association (in words) [1]: reduce α7nAChR-FLNA association
- MOR agonist activity, [35S]GTPγS binding, FLNA-binding compound as agonist at 0.1 μM [3]: 114.0%
- MOR agonist activity, [35S]GTPγS binding, 1 μM + BFNA [3]: 35.9%
- MOR agonist activity, [35S]GTPγS binding, FLNA-binding compound as agonist at 1 μM [3]: 144.3%

Molecule: Nalbuphine [reference compound]
- Binding to the FLNA pentapeptide of SEQ ID NO: 1 (in words) [2]: bind well

Molecule: Cc1ccc(S(=O)(=O)N2CCOC23CCN(CC2CCC2)CC3)cc1 [Compound 9]
- inhibition at 0.0001 µM [2]: 22.5%
- inhibition at 0.001 µM [2]: 24.8%
- inhibition at 0.01 µM [2]: 27.7%
- inhibition at 0.1 µM [2]: 35.3%
- inhibition at 1 µM [2]: 49.6%
- MOR agonist activity ([35S]GTPγS binding to Gαo), preliminary study ([3]; 0.1 μM compound as agonist): 156.6%
- MOR agonist activity ([35S]GTPγS binding to Gαo), preliminary study ([3]; 1 μM + βNFA): 56.6%
- MOR agonist activity ([35S]GTPγS binding to Gαo), preliminary study ([3]; 1 μM compound as agonist): 197.2%
